Here are results for 4 compounds from patent US20210349077A1, “Method of quantifying induced membrane permeability and of screening compounds able to prevent said permeability” (Zarbio, priority 2020, published 2021).

The nature of experiment [1]: Flow cytometric calcium permeabilization of phosphatidylserine liposomes (DiD membrane probe, Fluo-3 calcium probe). In kind it is biochemical. To be noted: for channel formation / permeabilization of membranes to calcium: summary statement, FIG. 10 and 12; for permeability of liposomes to calcium: peptide stock in DMSO, final concentration 10 μM. An excerpt: (§1) Unilamellar liposomes are created with Fluo-3 membrane-impermeant fluorescent dye sensitive to the concentration of calcium (an example of ion sensitive probe, ISP, at the FIG. 2). The buffer for the created liposomes is calcium-free, and can contain calcium-chelating agents, such as EGTA or EDTA. Both calcium-free and calcium-bound Fluo-3 effectively absorb light with wavelength of 488 nm (one of typical lasers used in flow cytometers, blue light). […] Measuring the fluorescence at 520 nm allows to distinguish the liposomes which contain free calcium and those which are impermeant to calcium.
(§2) To identify liposomes in the flow, lipids can be supplemented with a lipophilic dye such as 1,1′-dioctadecyl-3,3,3′,3′-tetramethylindodicarbocyanine (DiD), which serves as membrane probe (MP at the FIG. 2). […] However, after ion channels are formed in the particular liposome, the electrolytes are equilibrated between inside and outside of the liposome. Therefore, due to the presence of calcium outside, the liposomes with the channels will have high free calcium, so Fluo-3 will have intensive fluorescence.
(§3) In the flow cytometer, the appearance of channels is visible as increasing proportion of calcium-loaded liposomes compared with calcium-free liposomes. When every liposome becomes permeant to calcium, all liposomes will be presented as loaded with calcium. This condition is used for normalization and can be achieved in control experiments by the addition of calcium ionophore such as ionomycin.
Liposomes (400 nm) were made of phosphatidylserine with DiD and were extruded in the buffer without (A-C) or with (D-I) 1 mM Fluo-3. […] Liposomes with membrane but without calcium-sensitive probe in the presence of calcium. • D, E, F (Second row). Liposomes with both membrane and calcium-sensitive probe in the presence of calcium. • G, H, I (Third row). Liposomes with both membrane and calcium-sensitive probe in the absence of calcium. • A, D, G (First column). Liposomes only. • B, E, H (Second column). Liposomes with added 5 μM Aβ25-35. • C, F, I (Third column). Liposomes with added 5 μM Aβ25-35 followed by ionomycin.
Liposomes made of phosphatidylserine and contained both DiD and Fluo-3. In a calcium-containing medium, membranes are not permeant to calcium, so there is a minimal number of liposomes with increased levels of green fluorescence (A). […] Increasing concentration of amyloid peptide increases the number of permeant liposomes (C, D).
This figure summarizes data from experiments, described at the FIG. 10. Liposomes made of phosphatidylserine and contained both DiD and Fluo-3 were treated by various concentrations of Aβ25-35. For the treatment, the same stock solution of peptide in distilled water was added to the suspension of liposomes in a calcium-containing medium. The gate to count the number of permeabilized vesicles is shown at the density plot (left graph).
Phosphatidylserine liposomes were prepared to contain both DiD and Fluo-3 as described for previous figures. Liposomes were tested to be permeabilized by Aβ25-35. • A. Control PS liposomes with calcium (60 μM). Limited number of events is registered in the area corresponding to permeabilized vesicles. • B. Effect of Aβ1-42 (8 μM). […] Effect of ionomycin (50 nM, positive control).
In this experiment, stock solution of peptides was prepared in DMSO to extend the testing to the peptide which are not soluble in water-based excipients. […] There is no difference between the effects of the peptide that was dissolved initially in DMSO (“Lip+Pep/DMSO”) and water (not shown here). • C.
The permeabilization to calcium ions will be described first as an example. To detect calcium transmembrane transfer, calcium-sensitive probes are used, such as Fluo-3 or Fluo-4 which dramatically increase their fluorescence upon binding calcium. Liposomes are formed in a calcium-free medium containing calcium-sensitive probe. […]

Experiment [2] is described as follows: Flow cytometric fluorescence test of phosphatidylcholine liposomes (DiD, Fluo-3). In kind it is biochemical.
From the text: as §1, §2, §3
Liposomes (400 nm) were made of phosphatidylcholine with DiD and were extruded in the buffer containing 1 mM Fluo-3 (A-H) or without Fluo-3 (I, J).
The effect of Aβ25-35 was the same in calcium-free medium with EGTA (F,G).

Turning to Aβ1-42: full-length amyloid peptide, in experiment [1] (8 μM peptide, calcium 60 μM, compared with control), the “number of events in the area corresponding to permeabilized vesicles” value is “does not exceed same number observed in control experiment”. Also, the “channel formation / permeabilization of membranes to calcium” value in experiment [1] was “does not create channels permeabilizing membranes to calcium”.
In the case of “Aβ31-35: amyloid-beta peptide fragment tested at 10 μM from DMSO stock (IIGLM; Amyloid-beta protein 42; UniProt P05067 702-706, looked up, fragment)”, the “permeability of liposomes to calcium” value in experiment [1] is on record as “did not affect the permeability of liposomes”.
In the case of “Aβ25-35: short fragment of beta-amyloid peptide that forms membrane channels (GSNKGAIIGLM; Amyloid-beta protein 42; UniProt P05067 696-706, looked up, fragment)”, the “effect on green signal compared with calcium-containing medium” value in experiment [2] (calcium-free medium with EGTA) is given as “the same”. Also, in experiment [2] (concentrations above 10 μM (20 μM, 50 μM), 400 nm liposomes with 1 mM Fluo-3, calcium present), the “green signal from vesicles” value is “slightly but reproducibly increased green signal from vesicles”. In experiment [2] (liposomes extruded without Fluo-3), the “shift of green fluorescence distribution” value was “still shifted the distribution upward”. Moreover, in experiment [1], the “time for effects of the peptide to develop after addition to liposomes” value is on record as “within the first minute”, the “permeability of liposomes to calcium” value was “permeabilized liposomes” and the “channel formation / permeabilization of membranes to calcium” value is recorded as “efficiently permeabilize multiple liposomes”. For the same compound, in experiment [1] (2 μM peptide, calcium-containing medium), the “liposomes made permeant to calcium” value is “makes some of liposomes permeant to calcium”. In addition, in experiment [1] (5 μM peptide, 400 nm liposomes with 1 mM Fluo-3, extravesicular calcium present), the “green (Fluo-3) signal from vesicles” value was “increased green signal from vesicles only in the presence of both Fluo-3 and calcium”. The “green signal from vesicles” value in experiment [1] (5 μM peptide, DiD-only liposomes or calcium-free buffer (EGTA)) was “did not have effect”. The “change in number of permeabilized liposomes on prolonged incubation” value in experiment [1] (incubation with the peptide for up to one hour) is recorded as “does not change the number of permeabilized liposomes”. The “liposomes of total number that become permeant to calcium” value in experiment [1] (phosphatidylserine liposomes, various conditions (FIG. 11)) is “up to 10%”. For the same compound, the “dependence of number of permeabilized liposomes on amount of added peptide” value in experiment [1] (various concentrations, stock in distilled water, calcium-containing medium) is listed as “linearly dependent on the amount of added peptide”.
Take `C[C@H](CCC(=O)O)C[C@H](C)C[C@H](C)C(=O)/C=C(\O)[C@H](C)C[C@H](C)C/C=C/[C@@H](C)[C@@H](O)[C@@H](C)[C@@H](O)C[C@@H]1CC[C@@](C)([C@H]2CC[C@@](C)([C@@H](C)O)O2)O1` [ionomycin]: in experiment [2] (liposomes with 1 mM Fluo-3, calcium present), the “fluorescence after ionophore addition” value is recorded as “significantly increased fluorescence”. The “permeabilization of liposomes (positive control)” value in experiment [1] (50 nM, calcium 60 μM) was “permeabilizes all liposomes”. For the same compound, the “effect of ionomycin added following 5 μM Aβ25-35” value in experiment [1] (DiD-only vesicles and in the absence of calcium) was “did not produce any effect”. In experiment [1] (liposomes with Fluo-3, calcium present), the “Fluo-3 signal after ionomycin added following 5 μM Aβ25-35” value was “did not further increase the Fluo-3 signal from vesicles with low DiD signal but additionally shifted upwards the part of the distribution with high DiD signal”.
